# Patent US12384813B2, “Polymer linked multimers of guanosine-3′, 5′-cyclic monophosphates” (MIRECA MEDICINES GMBH, priority 2016, dated 2025)
# What was measured:
# [1] = Water solubility of alkyl spacer PLDs; assay type: physicochemical; conditions: alkyl spacers with moderate size
# PKG Iα = molecular target: T1, PKG Iα (Homo sapiens, UniProt Q13976); conditions: cited from earlier work
# T1 sequence (Q13976 1-671): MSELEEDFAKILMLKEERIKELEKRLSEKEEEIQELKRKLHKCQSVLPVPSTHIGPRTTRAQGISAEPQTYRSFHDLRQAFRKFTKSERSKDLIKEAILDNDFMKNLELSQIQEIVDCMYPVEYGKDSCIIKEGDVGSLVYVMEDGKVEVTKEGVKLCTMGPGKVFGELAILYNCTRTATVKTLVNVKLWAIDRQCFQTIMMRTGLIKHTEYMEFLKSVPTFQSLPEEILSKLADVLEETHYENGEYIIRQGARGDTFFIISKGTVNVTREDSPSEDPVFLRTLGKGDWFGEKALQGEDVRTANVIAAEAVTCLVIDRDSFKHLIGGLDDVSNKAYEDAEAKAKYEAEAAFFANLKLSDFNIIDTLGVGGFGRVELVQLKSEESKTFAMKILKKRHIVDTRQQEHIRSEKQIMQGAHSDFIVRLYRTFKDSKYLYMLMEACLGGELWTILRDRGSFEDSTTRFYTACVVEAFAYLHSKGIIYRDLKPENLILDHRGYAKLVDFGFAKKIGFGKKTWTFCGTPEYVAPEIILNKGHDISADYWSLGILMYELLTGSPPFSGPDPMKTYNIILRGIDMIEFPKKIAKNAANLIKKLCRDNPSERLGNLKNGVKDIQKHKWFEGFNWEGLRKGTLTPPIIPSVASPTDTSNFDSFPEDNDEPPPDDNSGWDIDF
# PKG II = molecular target: T2, PKG II (Homo sapiens, UniProt Q13237); experiment: In vitro activation of PKG II, ADP-Glo Kinase Assay (luminescence), VASPtide substrate; conditions: compound lacking PET moiety vs compound 5
# T2 sequence (Q13237 1-762): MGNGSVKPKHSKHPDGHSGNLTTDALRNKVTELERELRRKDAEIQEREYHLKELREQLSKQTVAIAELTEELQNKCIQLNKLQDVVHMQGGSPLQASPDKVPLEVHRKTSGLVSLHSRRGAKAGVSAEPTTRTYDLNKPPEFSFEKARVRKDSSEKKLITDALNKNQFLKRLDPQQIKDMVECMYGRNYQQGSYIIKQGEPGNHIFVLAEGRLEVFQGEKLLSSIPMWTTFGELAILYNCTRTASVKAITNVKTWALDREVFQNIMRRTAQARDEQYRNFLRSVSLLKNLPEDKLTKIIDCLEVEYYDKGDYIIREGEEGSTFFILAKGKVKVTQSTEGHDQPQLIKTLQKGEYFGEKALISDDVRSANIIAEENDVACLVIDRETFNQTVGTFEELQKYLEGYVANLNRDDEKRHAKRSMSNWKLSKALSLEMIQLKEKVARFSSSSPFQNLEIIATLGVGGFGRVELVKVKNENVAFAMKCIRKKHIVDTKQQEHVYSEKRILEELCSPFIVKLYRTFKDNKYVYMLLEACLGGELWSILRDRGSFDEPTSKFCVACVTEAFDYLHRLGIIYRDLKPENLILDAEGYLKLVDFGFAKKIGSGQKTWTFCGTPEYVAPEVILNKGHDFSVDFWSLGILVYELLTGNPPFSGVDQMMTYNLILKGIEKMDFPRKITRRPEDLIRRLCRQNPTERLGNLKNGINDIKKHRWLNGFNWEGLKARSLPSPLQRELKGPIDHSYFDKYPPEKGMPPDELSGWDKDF
# Procedure: (§1) In vitro activation experiments with PKG isozymes Iα, Iβ and II were performed with the commercially available luminescence assay ADP-Glo™ Kinase Assay (Cat. #V9101) from Promega Corporation (Madison, WI, USA) according to the manufacturer's instruction manual (The ADP-Glo™ Kinase Assay Technical Manual #TM313), standardized and conducted by BIAFFIN GmbH & Co KG (Kassel, Germany). Luminescence detection was accomplished with a LUMIstar Optima microplate luminometer from BMG LABTECH GmbH (Ortenberg, Germany). […] Human PKGIβ and PKGII were expressed in Sf9 cells and purified by affinity chromatography.^2 Concentrations of enzymes given below refer to the dimeric form.
# PKG II (0.5 nM), 20 mM Tris (pH 7.4), 10 mM Mg2Cl2, 1 mg/mL BSA, 5 mM (3-mercaptoethanol, 2.5% DMSO, 130 μM VASPtide, 50 μM ATP, room temperature, 120 min.
# PKG Iβ = molecular target: T3, PKG Iβ (Homo sapiens, UniProt Q13976); experiment: In vitro activation of PKG Iβ, ADP-Glo Kinase Assay (luminescence), VASPtide substrate; assay type: biochemical; conditions: compound lacking PET moiety vs compound 5
# T3 construct: made in house; host or cells: Sf9 cells
# T3 sequence (Q13976 1-686 isoform Q13976-2): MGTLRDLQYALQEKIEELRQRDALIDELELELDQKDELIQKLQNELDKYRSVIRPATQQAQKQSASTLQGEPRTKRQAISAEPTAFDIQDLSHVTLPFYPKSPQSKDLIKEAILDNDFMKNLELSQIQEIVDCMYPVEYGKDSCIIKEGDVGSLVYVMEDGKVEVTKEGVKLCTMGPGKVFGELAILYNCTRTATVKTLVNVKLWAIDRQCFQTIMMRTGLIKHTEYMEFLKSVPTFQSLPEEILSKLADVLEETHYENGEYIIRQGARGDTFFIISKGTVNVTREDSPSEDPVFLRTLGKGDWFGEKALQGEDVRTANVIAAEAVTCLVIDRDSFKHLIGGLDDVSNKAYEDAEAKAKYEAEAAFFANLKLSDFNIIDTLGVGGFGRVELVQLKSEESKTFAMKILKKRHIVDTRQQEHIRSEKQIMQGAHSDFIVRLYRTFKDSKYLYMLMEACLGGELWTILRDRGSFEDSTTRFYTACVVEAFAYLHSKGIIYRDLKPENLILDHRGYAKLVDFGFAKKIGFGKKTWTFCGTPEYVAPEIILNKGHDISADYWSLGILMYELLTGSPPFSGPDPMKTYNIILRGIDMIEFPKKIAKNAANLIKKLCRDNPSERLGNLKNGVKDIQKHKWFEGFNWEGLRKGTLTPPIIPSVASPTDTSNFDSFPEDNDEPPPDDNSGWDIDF
# Procedure: as §1
# PKG Iβ (0.15 nM), 20 mM Tris (pH 7.4), 10 mM Mg2Cl2, 1 mg/mL BSA, 2.5% DMSO, 130 μM VASPtide, 50 μM ATP, room temperature, 60 min.
compound,measurement,setting,value
"Nc1nc2c(nc(SCCCCCCCCCCCCSc3nc4c(=O)[nH]c(N)nc4n3[C@@H]3OC4COP(=O)(O)O[C@H]4C3O)n2[C@@H]2OC3COP(=O)(O)O[C@H]3C2O)c(=O)[nH]1 (stereo partly shown) [compound 16, Guanosine-3′,5′-cyclic monophosphate-[8-thio(dodecanyl)-thio-8]-guanosine-3′,5′-cyclic monophosphate]",water solubility,[1],sufficient water solubility
"Nc1nc2c(nc(Sc3ccccc3N)n2[C@@H]2O[C@@H]3COP(=O)(O)O[C@H]3[C@H]2O)c(=O)[nH]1 [8-APT-cGMP, 8-(2-NH2-Ph-S)-cGMP]",PKG Iα activation potential compared to cGMP (literature),PKG Iα,about 15 fold
"Nc1nc2c(nc(SCC(=O)NCCOCCOCCOCCOCCOCCOCCOCCOCCNC(=O)CSc3nc4c(=O)[nH]c(N)nc4n3C3OC4COP(=O)(O)OC4C3O)n2C2OC3COP(=O)(O)OC3C2O)c(=O)[nH]1 (stereo not shown) [compound 3, Guanosine-3′,5′-cyclic monophosphate-[8-thiomethylamido-(octaethoxy)-ethylamidomethylthio-8]-guanosine-3′,5′-cyclic monophosphate]",increase of relative PKG II activation compared to compound 5,PKG II,30 fold
same,decrease of relative PKG Iβ activation compared to compound 5,PKG Iβ,more than 51 fold
